Patent US20240426847A1, “COMPOSITIONS AND METHODS FOR THE DETERMINATION OF SODIUM CONCENTRATION” (The University of Chicago, priority 2023, published 2024)

Key:
[1] = target: T1, PIKfyve (Mus musculus, UniProt Q9Z1T6); experiment: Pharmacological inhibition of macrophages, lysosomal Na^+ measured with RatiNa; type: cell-based, murine; settings: RAW 264.7 macrophages, 100 nM apilimod 1 h; native lysosomes ~48 mM
T1 construct: endogenous in cells; host or cells: RAW 264.7 macrophages
Procedure: 1 μM RatiNa in prewarmed Opti-MEM was added to RAW macrophage and incubated for 2 h for maximum RatiNa uptake. Cells were then washed 3 times with PBS and incubated in prewarmed complete DMEM medium for 30 min to allow lysosome targeting of RatiNa. RatiNa in cell was then imaged in confocal microscope or widefield microscope.
RAW macrophage was treated with 100 nM apilimod for 1 h to inhibit PIKfyve. RatiNa treatment was done as stated previously with 100 nM apilimod in all medium. Cell was then imaged in confocal microscope.

[2] = ssDNA-CG Na^+ sensitivity by fluorescence; type: physicochemical; settings: 1 mM and 150 mM NaCl, 100 nM ssDNA-CG, pH 7.4 potassium phosphate buffer
Procedure: FIGS. 12A-12B illustrate the validation of CG-DNA conjugate efficiency and Na^+ sensitivity. […] Molar ratio of DNA to CG is confirmed to be ˜ 1:1 confirming the coupling efficiency. […] 1 mM and 150 mM NaCl was added to 100 nM of ssDNA-CG in pH 7.4 potassium phosphate buffer. Fluorescence maximum at 545 increases more than 5-fold.
100 nM of RatiNa was aliquoted in UB buffer (10 mM HEPES, MES and potassium acetate, 140 mM NaCl/KCl). pH adjusted by HCl or KOH) Fluorescent emission spectra was taken by Fluoromax (Horiba) with the following collection parameters: For CG, dex=522 nm, range from 530 nm to 600 nm. For ATTO647N, dex=645 nm, range from 660 nm to 700 nm.

T1 sequence (Q9Z1T6 whole entry): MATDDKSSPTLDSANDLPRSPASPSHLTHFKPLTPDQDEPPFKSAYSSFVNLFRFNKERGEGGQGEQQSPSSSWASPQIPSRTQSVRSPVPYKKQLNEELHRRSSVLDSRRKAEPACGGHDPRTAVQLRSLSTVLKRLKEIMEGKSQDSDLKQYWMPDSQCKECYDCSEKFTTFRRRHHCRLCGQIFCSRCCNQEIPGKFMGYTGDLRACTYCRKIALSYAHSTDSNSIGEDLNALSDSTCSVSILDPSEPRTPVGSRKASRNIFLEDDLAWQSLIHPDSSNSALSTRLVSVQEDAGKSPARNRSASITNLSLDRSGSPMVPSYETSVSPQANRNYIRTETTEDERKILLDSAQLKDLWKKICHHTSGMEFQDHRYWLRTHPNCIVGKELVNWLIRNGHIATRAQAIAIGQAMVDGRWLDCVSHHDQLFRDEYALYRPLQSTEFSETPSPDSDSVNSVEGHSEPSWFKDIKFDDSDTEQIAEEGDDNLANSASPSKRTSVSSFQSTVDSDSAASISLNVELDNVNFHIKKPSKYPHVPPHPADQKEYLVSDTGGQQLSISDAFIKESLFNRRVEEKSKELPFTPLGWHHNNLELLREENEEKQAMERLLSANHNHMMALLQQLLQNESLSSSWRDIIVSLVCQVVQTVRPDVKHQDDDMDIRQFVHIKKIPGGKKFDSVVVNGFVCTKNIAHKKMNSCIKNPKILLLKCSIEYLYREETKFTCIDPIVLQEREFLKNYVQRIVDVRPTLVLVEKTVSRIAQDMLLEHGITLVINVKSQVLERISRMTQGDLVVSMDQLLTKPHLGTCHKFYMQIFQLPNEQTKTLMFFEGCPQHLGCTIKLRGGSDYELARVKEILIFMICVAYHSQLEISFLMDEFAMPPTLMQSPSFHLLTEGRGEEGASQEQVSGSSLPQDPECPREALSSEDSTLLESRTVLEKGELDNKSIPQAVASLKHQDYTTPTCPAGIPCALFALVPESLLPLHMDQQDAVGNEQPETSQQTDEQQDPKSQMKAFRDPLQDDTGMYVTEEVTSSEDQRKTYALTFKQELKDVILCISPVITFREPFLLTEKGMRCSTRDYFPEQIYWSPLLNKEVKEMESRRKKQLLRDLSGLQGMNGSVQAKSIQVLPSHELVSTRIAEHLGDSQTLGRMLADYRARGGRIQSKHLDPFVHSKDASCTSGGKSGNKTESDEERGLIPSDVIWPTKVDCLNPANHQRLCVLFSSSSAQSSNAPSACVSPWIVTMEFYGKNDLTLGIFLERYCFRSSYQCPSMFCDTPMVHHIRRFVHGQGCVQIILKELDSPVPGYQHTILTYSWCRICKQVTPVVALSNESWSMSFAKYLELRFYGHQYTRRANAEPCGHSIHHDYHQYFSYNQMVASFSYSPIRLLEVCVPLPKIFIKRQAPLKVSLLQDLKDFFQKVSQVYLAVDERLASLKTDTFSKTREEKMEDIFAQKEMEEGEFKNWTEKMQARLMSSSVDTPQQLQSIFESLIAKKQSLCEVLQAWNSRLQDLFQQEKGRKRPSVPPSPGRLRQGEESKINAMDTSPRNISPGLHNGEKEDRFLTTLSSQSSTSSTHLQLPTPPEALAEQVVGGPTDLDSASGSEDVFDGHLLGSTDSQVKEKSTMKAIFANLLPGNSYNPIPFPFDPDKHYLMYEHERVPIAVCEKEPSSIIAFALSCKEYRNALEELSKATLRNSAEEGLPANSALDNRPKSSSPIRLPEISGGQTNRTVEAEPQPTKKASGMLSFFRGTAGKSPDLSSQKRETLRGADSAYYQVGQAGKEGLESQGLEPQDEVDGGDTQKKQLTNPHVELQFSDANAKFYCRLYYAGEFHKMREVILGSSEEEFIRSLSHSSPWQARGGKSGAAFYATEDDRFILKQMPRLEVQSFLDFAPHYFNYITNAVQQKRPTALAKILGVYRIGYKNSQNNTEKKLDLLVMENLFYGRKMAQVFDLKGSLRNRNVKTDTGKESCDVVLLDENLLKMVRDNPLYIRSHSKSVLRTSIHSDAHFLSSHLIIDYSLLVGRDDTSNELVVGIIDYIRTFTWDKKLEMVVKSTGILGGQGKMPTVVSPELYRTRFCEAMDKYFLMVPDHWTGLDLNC

| Compound | lysosomal Na^+ upon PIKfyve inhibition [1] [mM] | increase of fluorescence maximum at 545 [2] |
| --- | --- | --- |
| Cc1cccc(/C=N/Nc2cc(N3CCOCC3)nc(OCCc3ccccn3)n2)c1 [apilimod] | ~70 |  |
| ssDNA-CG: 25mer ssDNA conjugated to CG dye by CuAAC coupling (CGATCAACACTGCATATATATACGACC; CG dye conjugated by CuAAC, chemistry not fully specified) |  | more than 5 fold |
